Source: EP1724268A1, “COMPOUND HAVING TGF-BETA INHIBITORY ACTIVITY AND PHARMACEUTICAL COMPOSITION CONTAINING SAME” (KIRIN BEER KABUSHIKI KAISHA, priority 2004, dated 2005)
Where two headings read alike, the source gives them in different places.

System: TGFβ signal
Assay: TGFβ signal inhibitory activity, (SBE)4-Luc reporter in A549 cells (Test Examples 1A and 1B)
Assay type: cell-based, human
Conditions: Homo sapiens, A549, read-out: TGFβ inhibition rate, %; for inhibition at 1 µM: test compound 1 µM
Method in brief: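 Stable A549 line carrying (SBE)4-Luc Smad3-binding reporter treated with compound plus TGFβ-1 (2 ng/ml) for 4 hr; luciferase read by chemiluminescence. Percent inhibition relative to TGFβ-only and untreated cells, tested at 3 µM and 10 µM, some also at 1 µM.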

[1] = test compound 3 µM, Reference Examples, Table 1B
[2] = test compound 10 µM, Reference Examples, Table 1B
[3] = 3 µM, compounds of Reference Examples (Test Example 1B)
[4] = 10 µM, compounds of Reference Examples (Test Example 1B)
[5] = test compound 3 µM, TGFβ-1 2 ng/ml, 4 hr, Table 1A
[6] = test compound 10 µM, TGFβ-1 2 ng/ml, 4 hr, Table 1A

CCN(CC)CC(O)COc1cc2nccc(Oc3ccc(C)cc3C(=O)c3ccccc3)c2cc1OC (centres unmarked) [r153]
inhibition at 3 µM [1]: 100% | inhibition at 10 µM [2]: 100%

COc1cc2c(Oc3cc4ccccc4nc3C)ccnc2cc1OCCn1ccnc1 [Compound r368]
inhibition at 3 µM [3]: 100% | inhibition at 10 µM [4]: 100%

COc1cc2nccc(Oc3cc4cccnc4nc3-c3ccccc3)c2cc1C(N)=O [Compound 66, 7-Methoxy-4-(2-phenyl-[1,8]naphthyridin-3-yloxy)-quinoline-6-carboxylic acid amide]
inhibition at 1 µM (TGFβ-1 2 ng/ml, 4 hr, Table 1A): 97% | inhibition at 3 µM [5]: 100%

COc1cc2nccc(Oc3ccc(C)nc3-c3cccc(N)c3)c2cc1OC [Compound r235]
inhibition at 3 µM [3]: 100% | inhibition at 10 µM [4]: 100%

COc1cc2nccc(Oc3cc4cc(F)ccc4nc3-c3ccccc3)c2cc1OC [r292]
inhibition at 3 µM [3]: 86% | inhibition at 10 µM [4]: 100%

COc1cc2nccc(Oc3cc4ccccc4nc3-c3cccnc3)c2cc1OC [Compound r288]
inhibition at 3 µM [3]: 94% | inhibition at 10 µM [4]: 100%

COc1cc2nccc(Oc3ccc(C)nc3-c3cnn(C)c3)c2cc1OC [r438]
inhibition at 3 µM [3]: 99% | inhibition at 10 µM [4]: 100%

COc1cc2nccc(Oc3ccc(C)nc3-c3ccccc3)c2cc1OC [Compound r223, 6,7-Dimethoxy-4-(6-methyl-2-phenyl-pyridin-3-yloxy)-quinoline]
inhibition at 3 µM [3]: 99% | inhibition at 10 µM [4]: 100%

COc1cc2c(Oc3cc(C)c(C)nc3-c3ccc(C)cn3)ccnc2cc1OCCCl [Compound r466]
inhibition at 3 µM [3]: 99% | inhibition at 10 µM [4]: 100%

COc1cc2c(Oc3cc(C)c(C)nc3-c3cccnc3)ccnc2cc1O [Compound r345]
inhibition at 3 µM [3]: 61% | inhibition at 10 µM [4]: 93%

COc1cc2nccc(Oc3ccc(C)nc3-c3ccc(CO)cc3)c2cc1OC [Compound r245]
inhibition at 3 µM [3]: 80% | inhibition at 10 µM [4]: 99%

COc1cc2c(Oc3cc(C)c(C)nc3-c3ccc(C)cn3)ccnc2cc1OCC(O)CO (centres unmarked) [Compound r463]
inhibition at 3 µM [3]: 77% | inhibition at 10 µM [4]: 99%

COc1cc2c(Oc3ccc(C)cc3C(=O)c3ccccc3)ccnc2cc1OCCCCN1CCC(N2CCCC2)CC1 [Compound r145]
inhibition at 3 µM [1]: 87% | inhibition at 10 µM [2]: 100%

COc1cc2nccc(Oc3cc(C)c(C)nc3-c3ccccn3)c2cc1OCc1ccccc1 [Compound 138, 3-(6-Benzyloxy-7-methoxy-quinolin-4-yloxy)-5,6-dimethyl-[2,2'] bipyridine]
inhibition at 3 µM [5]: 98% | inhibition at 10 µM [6]: 100%

COc1cc2nccc(Oc3cc4ccncc4cc3-c3cccnc3)c2cc1OC [r304]
inhibition at 3 µM [3]: 26% | inhibition at 10 µM [4]: 64%

COC(=O)c1cc2c(Oc3cc4cccnc4nc3-c3ccccc3)ccnc2cc1OC [Compound 63, Methyl 7-methoxy-4-(2-phenyl-[1,8]naphthyridin-3-yloxy)-quinoline-6-carboxylate]
inhibition at 3 µM [5]: 99% | inhibition at 10 µM [6]: 100%

Cc1ccc(Oc2ccnc3ccc(OCCCCl)cc23)c(-c2ncccn2)n1 [Compound 210, 6-(3-Chloro-propoxy)-4-(6-methyl-2-pyrimidin-2-yl-pyridin-3-yloxy)-quinoline]
inhibition at 3 µM [5]: 87%

COc1cc2nccc(Oc3ccc(C)nc3-c3cccc(C#N)c3)c2cc1OC [Compound r234]
inhibition at 3 µM [3]: 87% | inhibition at 10 µM [4]: 100%

COc1cncc(-c2nc(C)c(C)cc2Oc2ccnc3cc(OC)c(OC)cc23)c1 [Compound 45, 3-(6,7-Dimethoxy-quinolin-4-yloxy)-5'-methoxy-5,6-dimethyl-[2,3']bipyridine]
inhibition at 3 µM [5]: 89% | inhibition at 10 µM [6]: 100%

COc1cc2c(Oc3ccc(C)cc3C(=O)c3ccccc3)ccnc2cc1OCCCNCCO [Compound r133]
inhibition at 3 µM [1]: 100% | inhibition at 10 µM [2]: 100%

CCOC(=O)c1cc(OC)ccc1Oc1ccnc2cc(OC)c(OC)cc12 [Compound r91]
inhibition at 3 µM [1]: 96% | inhibition at 10 µM [2]: 100%

Cc1ccc2nccc(Oc3cc(C)c(C)nc3-c3ccccn3)c2c1 [Compound 157, 5,6-Dimethyl-3-(6-methyl-quinolin-4-yloxy)-[2,2']bipyridine]
inhibition at 3 µM [5]: 99% | inhibition at 10 µM [6]: 100%

COc1cc2ncnc(Oc3cc(C)c(C)nc3-c3ccccn3)c2cc1OC [Compound 27, 4-(5,6-Dimethyl-[2,2']bipyridin-3-yloxy)-6,7-dimethoxy-quinazoline]
inhibition at 1 µM (TGFβ-1 2 ng/ml, 4 hr, Table 1A): 89% | inhibition at 3 µM [5]: 100%

CCc1ccc(Oc2ccnc3cc(C(N)=O)c(OCc4ccccc4)cc23)c(-c2ncccn2)n1 [Compound 193, 6-Benzyloxy-4-(6-ethyl-2-pyrimidin-2-yl-pyridin-3-yloxy)-quinoline-7-carboxylic acid amide]
inhibition at 3 µM [5]: 80%

Cc1cc(Oc2ccnc3cc(-c4ccccn4)ccc23)c(-c2ccccn2)nc1C [Compound 176, 5,6-Dimethyl-3-(7-pyridin-2-yl-quinolin-4-yloxy)-[2,2']bipyridine]
inhibition at 3 µM [5]: 99% | inhibition at 10 µM [6]: 100%

COc1cc2nccc(Oc3cc4ccccc4nc3C)c2cc1OCC(O)CO (centres unmarked) [r417]
inhibition at 3 µM [3]: 98% | inhibition at 10 µM [4]: 100%

c1ccc(-c2nc3ncccc3cc2Oc2ccnc3ccsc23)cc1 [Compound 71, 2-Phenyl-3-(thieno[3,2-b]pyridin-7-yloxy)-[1,8]naphthyridine]
inhibition at 3 µM [5]: 93% | inhibition at 10 µM [6]: 100%

CCOC(=O)c1cc2cc(Oc3ccnc4cc(OC)c(OC)cc34)ccc2[nH]1 [Compound r22]
inhibition at 3 µM [1]: 11% | inhibition at 10 µM [2]: 81%

COc1cc2nccc(Oc3cc4cccnc4nc3C(C)(C)C)c2cc1OC [r426]
inhibition at 3 µM [3]: 100%

Cc1cc(Oc2ncnc3ccccc23)c(-c2ccccn2)nc1C [Compound 23, 4-(5,6-Dimethyl-[2,2']bipyridinyl-3-yloxy)-quinazoline]
inhibition at 3 µM [5]: 78% | inhibition at 10 µM [6]: 98%

COc1cc2nccc(Oc3cc4ccccc4cc3C(=O)Oc3ccccc3)c2cc1OC [Compound r102]
inhibition at 3 µM [1]: 33% | inhibition at 10 µM [2]: 95%

CCC(=O)c1cc(C)ccc1Oc1ccnc2cc(OC)c(OC)cc12 [Compound r48]
inhibition at 3 µM [1]: 98% | inhibition at 10 µM [2]: 100%

COc1cc2nccc(Oc3cc(C)ccc3C(C)=O)c2cc1OC [Compound r32]
inhibition at 3 µM [1]: 81% | inhibition at 10 µM [2]: 98%

COc1cc2c(Oc3cc(C)c(C)nc3-c3cccnc3)ccnc2cc1OCc1ccccc1 [Compound r344]
inhibition at 3 µM [3]: 92%

CCc1ccc(Oc2ccnc3cc(OC)c(OC)cc23)c(-c2cccnc2)n1 [Compound 46, 3-(6,7-Dimethoxy-quinolin-4-yloxy)-6-ethyl-[2,3']bipyridine]
inhibition at 3 µM [5]: 100% | inhibition at 10 µM [6]: 100%

Cc1ccc(-c2nc(C)c(C)cc2Oc2ccnc3cc(C(F)(F)F)ccc23)nc1 [r433]
inhibition at 3 µM [3]: 91% | inhibition at 10 µM [4]: 100%

COc1cc2nccc(Oc3ccccc3C(=O)Nc3ccccc3)c2cc1OC [r104]
inhibition at 3 µM [1]: 0% | inhibition at 10 µM [2]: 58%

COc1cc2nccc(Oc3ccc(Cl)cc3C(N)=O)c2cc1OC [Compound r106]
inhibition at 3 µM [1]: 9% | inhibition at 10 µM [2]: 80%

Cc1cc(Oc2ccnc3cc(Cl)c(C(N)=O)cc23)c(-c2ccccn2)nc1C [Compound 146, 7-Chloro-4-(5,6-dimethyl-[2,2']bipyridinyl-3-yloxy)-quinoline-6-carboxylic acid amide]
inhibition at 3 µM [5]: 54% | inhibition at 10 µM [6]: 95%
